Measurements reported in patent US20230042881A1, “MODULATORS OF INTEGRATED STRESS RESPONSE PATHWAY” (Praxis Biotech LLC, priority 2021, published 2023).
Read-outs that look alike come from different tables or passages of the source.

Assays:
[1] = test system: ATF4; test: ATF4 expression inhibition assay (ATF4 5′UTR luciferase reporter, thapsigargin-stressed); type: cell-based; settings: Homo sapiens, HEK-293T, read-out: ATF4 inhibition
Procedure: The ATF4 reporter was prepared by fusing the human full length 5′UTR of ATF4 (NCBI Accession No. BC022088.2) upstream of the firefly luciferase coding sequence lacking the initiator methionine. The fused sequence was cloned into pLenti-EF1a-C-Myc-DDK-IRES-Puro cloning vector (Origen #PS100085) using standard methods.
HEK293T cells carrying the ATF4 luciferase reporter were plated on 96-well plates (Nunc) at 10,000 cells per well. Cells were treated two days after seeding with 100 nM thapsigargin (Tg) (Sigma-Aldrich #T9033) in the presence of different concentrations of selected compounds ranging from 0.1 nM to […]. Cells without treatment or cells treated with Tg alone were used as controls. Assay plates containing cells were incubated for 3 hours at 37° C.
Luciferase reactions were performed using Luciferase Assay System (Promega #E1501) as specified by the manufacturer. Luminescence was read with an integration time of 1 s and a gain of 110 using a Cytation-5 multi-mode microplate reader (BioTek).

[2] = test system: Chinese hamster ovary (CHO) cells; test: Protein synthesis assay (puromycin incorporation, Western blot); type: cell-based; settings: Cricetulus griseus, read-out: % Protein synthesis relative to untreated (1 μM test compound)
Procedure: Chinese hamster ovary (CHO) cells were maintained at 37° C. and 5% CO2 in Dulbecco's Modified Eagle's Media (DMEM) supplemented with 10% fetal bovine serum, 2 mM L-glutamine, 100 U/ml penicillin, and 100 μg/ml streptomycin. After reaching 80% of confluence, cells were detached and seeded on 6 well plates in complete media, allowed to recover overnight and treated for 2 hours with 1 μM of the test compound (to assess protein synthesis levels in unstressed condition), or for 2 hours with 300 nM Tg in the presence of 1 μM of the test compound (to assess the recovery of protein synthesis in a stressed condition). Cells with Tg alone were used as controls.
After the 2 hours treatments, media were replaced by adding 10 μg/ml puromycin (Sigma Aldrich #P8833) in complete media for 30 min. Media were removed and cells were lysed with SDS-PAGE lysis buffer. Lysates were transferred to 1.5 ml tubes and sonicated for 3 min and total protein amount were quantified using BCA Protein Assay Kit (Pierce). Equal amount of protein (30 μg) was loaded on SDS-PAGE gels.
A HRP-conjugated secondary antibody (Rockland) was employed to detect immune-reactive bands using enhanced chemiluminescence (ECL Western Blotting Substrate, Pierce). Quantification of protein bands was done by densitometry using ImageJ software.
The percentage levels were normalized to the media alone condition, which correspond to 100% protein synthesis. […]

[3] = HEK293T cells carrying ATF4 luciferase reporter, 100 nM thapsigargin (Tg), 3 hours at 37° C.
[4] = unstressed CHO cells (without Tg), 2 hours, 1 μM test compound, media alone = 100%

O=C(Nc1ccc2cc(Cl)ccc2n1)C1CCN(CCCOc2ccc(Cl)c(F)c2)CC1 [Compound 10, 1-(3-(4-chloro-3-fluorophenoxy)propyl)-N-(6-chloroquinolin-2-yl)piperidine-4-carboxamide]
IC50 [1, 3]: 10 to 100 nM | activity at 1 µM [2, 4]: 153%

O=C(COc1ccc(Cl)cc1)NN1CCC(C(=O)Nc2ccc3cc(Cl)ccc3n2)CC1 [Compound 18, 1-(2-(4-chlorophenoxy)acetamido)-N-(6-chloroquinolin-2-yl)piperidine-4-carboxamide]
IC50 [1, 3]: < 10 nM | activity at 1 µM [2, 4]: 75.6%

O=C(N[C@H]1CC[C@H](C(=O)Nc2nc3cc(Cl)ccc3o2)CC1)c1ccc2cc(Cl)ccc2n1 [Compound 99, 6-chloro-N-(trans-4-((5-chlorobenzo[d]oxazol-2-yl)carbamoyl)cyclohexyl)quinoline-2-carboxamide]
IC50 ([1]; 3 h): 10 to 100 nM | activity at 1 µM ([2]; CHO, 2 h): 84.8%

O=C(Nc1ccc2cc(Cl)ccc2n1)[C@H]1CC[C@H](C(=O)N[C@H]2C[C@@H](OC(F)(F)F)C2)CC1 [Compound 31, trans-N1-(6-chloroquinolin-2-yl)-N4-(cis-3-(trifluoromethoxy)cyclobutyl)cyclohexane-1,4-dicarboxamide]
IC50 [1, 3]: 10 to 100 nM | activity at 1 µM [2, 4]: 88.3%

O=C(NN1CCC(C(=O)NCc2cc3cc(Cl)ccc3o2)CC1)c1cc2cc(Cl)ccc2o1 [Compound 48, 1-(5-chlorobenzofuran-2-carboxamido)-N-((5-chlorobenzofuran-2-yl)methyl)piperidine-4-carboxamide]
IC50 [1, 3]: < 10 nM | activity at 1 µM [2, 4]: 109%

O=C(CO[C@H]1C[C@@H](OC(F)(F)F)C1)NN1CCC(C(=O)Nc2ccc3cc(Cl)ccc3n2)CC1 [Compound 25, N-(6-chloroquinolin-2-yl)-1-(2-((1s, 3s)-3-(trifluoromethoxy)cyclobutoxy)acetamido)piperidine-4-carboxamide]
IC50 [1, 3]: < 10 nM | activity at 1 µM [2, 4]: 96.1%

O=C(COc1ccc(Cl)c(F)c1)N[C@H]1CC[C@H](C(=O)NCC2CNc3cc(Cl)ccc3O2)CC1 (stereo partly drawn) [Compound 67, trans-N-((6-chloro-3,4-dihydro-2H-benzo[b][1,4]oxazin-2-yl)methyl)-4-(2-(4-chloro-3-fluorophenoxy)acetamido)cyclohexanecarboxamide]
IC50 [1, 3]: < 10 nM | activity at 1 µM [2, 4]: 109%

O=C(COc1ccc(Cl)c(F)c1)NN1CCC(C(=O)Nc2nc3cc(Cl)ccc3o2)CC1 [Compound 97, 1-(2-(4-chloro-3-fluorophenoxy)acetamido)-N-(5-chlorobenzo[d]oxazol-2-yl)piperidine-4-carboxamide]
IC50 ([1]; 3 h): 10 to 100 nM | activity at 1 µM ([2]; CHO, 2 h): 71.5%

O=C(COc1ccc(C(F)(F)F)cc1)N[C@H]1CC[C@H](C(=O)Nc2ccc3cc(Cl)ccc3n2)CC1 [Compound 35, trans-N-(6-chloroquinolin-2-yl)-4-(2-(4-(trifluoromethyl)phenoxy)acetamido)cyclohexanecarboxamide]
IC50 [1, 3]: < 10 nM | activity at 1 µM [2, 4]: 82.9%

O=C(NN1CCC(C(=O)Nc2ccc3cc(Cl)ccc3n2)CC1)c1cc2cc(Cl)ccc2o1 [Compound 12, 1-(5-chlorobenzofuran-2-carboxamido)-N-(6-chloroquinolin-2-yl)piperidine-4-carboxamide]
IC50 [1, 3]: < 10 nM | activity at 1 µM [2, 4]: 121%

O=C(NN1CCC(C(=O)Nc2ccc3cc(Cl)ccc3n2)CC1)c1ccc2cc(Cl)ccc2n1 [Compound 19, 6-chloro-N-(4-((6-chloroquinolin-2-yl)carbamoyl)piperidin-1-yl)quinoline-2-carboxamide]
IC50 [1, 3]: < 10 nM | activity at 1 µM [2, 4]: 122%

O=C(N[C@H]1CC[C@H](C(=O)Nc2ccc3cc(Cl)ccc3n2)CC1)[C@H]1CNc2cc(Cl)ccc2O1 [Compound 6, trans-(R)-6-chloro-N-(4-((6-chloroquinolin-2-yl)carbamoyl)cyclohexyl)-3,4-dihydro-2H-benzo[b][1,4]oxazine-2-carboxamide]
IC50 [1, 3]: < 10 nM | activity at 1 µM [2, 4]: 100%

O=C(NN1CCC(C(=O)Nc2nc3cc(Cl)ccc3s2)CC1)c1ccc2cc(Cl)ccc2n1 [Compound 119, 6-chloro-N-(4-(5-chlorobenzo[d]thiazol-2-ylcarbamoyl)piperidin-1-yl)quinoline-2-carboxamide]
IC50 [1, 3]: < 10 nM | activity at 1 µM [2, 4]: 118%

O=C(CO[C@H]1C[C@@H](OC(F)(F)F)C1)N[C@H]1CC[C@H](C(=O)Nc2ccc3cc(Cl)ccc3n2)CC1 [Compound 24, trans-N-(6-chloroquinolin-2-yl)-4-(2-(cis-3-(trifluoromethoxy)cyclobutoxy)acetamido)cyclohexanecarboxamide]
IC50 [1, 3]: < 10 nM | activity at 1 µM [2, 4]: 99.3%

O=C(Nc1ccc2cc(Cl)ccc2n1)[C@H]1CC[C@H](NCCOc2ccc(Cl)c(F)c2)CC1 [Compound 11, trans-4-(2-(4-chloro-3-fluorophenoxy)ethylamino)-N-(6-chloroquinolin-2-yl)cyclohexane-1-carboxamide]
IC50 [1, 3]: 100 to 1000 nM | activity at 1 µM [2, 4]: 150%

O=C(NN1CCC(C(=O)NCc2cc3cc(Cl)ccc3o2)CC1)c1ccc2cc(Cl)ccc2n1 [Compound 44, 6-chloro-N-(4-(((5-chlorobenzofuran-2-yl)methyl)carbamoyl)piperidin-1-yl)quinoline-2-carboxamide]
IC50 [1, 3]: < 10 nM | activity at 1 µM [2, 4]: 96.8%

O=C(N[C@H]1CC[C@H](C(=O)NCc2cc3cc(Cl)ccc3o2)CC1)c1cc2cc(Cl)ccc2o1 [Compound 47, 5-chloro-N-(trans-4-(((5-chlorobenzofuran-2-yl)methyl)carbamoyl)cyclohexyl)benzofuran-2-carboxamide]
IC50 [1, 3]: < 10 nM | activity at 1 µM [2, 4]: 103%

O=C(N[C@H]1CC[C@H](C(=O)Nc2ccc3cc(Cl)ccc3n2)CC1)[C@@H]1CNc2cc(Cl)ccc2O1 [Compound 7, trans-(S)-6-chloro-N-(4-((6-chloroquinolin-2-yl)carbamoyl)cyclohexyl)-3,4-dihydro-2H-benzo[b][1,4]oxazine-2-carboxamide]
IC50 [1, 3]: < 10 nM | activity at 1 µM [2, 4]: 115%

O=C(COc1ccc(Cl)c(F)c1)NN1CCC(C(=O)Nc2nc3cc(Cl)ccc3s2)CC1 [Compound 116, 1-(2-(4-chloro-3-fluorophenoxy)acetamido)-N-(5-chlorobenzo[d]thiazol-2-yl)piperidine-4-carboxamide]
IC50 [1, 3]: 10 to 100 nM | activity at 1 µM [2, 4]: 116%

O=C(Nc1ccc2cc(Cl)ccc2n1)C1CCN(NC(=O)[C@H]2C[C@@H](O)c3cc(Cl)ccc3O2)CC1 [Compound 124, 1-((2R,4R)-6-chloro-4-hydroxychroman-2-carboxamido)-N-(6-chloroquinolin-2-yl)piperidine-4-carboxamide]
IC50 [1, 3]: < 10 nM | activity at 1 µM [2, 4]: 183%

O=C(COc1ccc(Cl)c(F)c1)N[C@H]1CC[C@H](C(=O)Nc2nc3cc(Cl)ccc3o2)CC1 [Compound 13, trans-4-(2-(4-chloro-3-fluorophenoxy)acetamido)-N-(5-chlorobenzo[d]oxazol-2-yl)cyclohexane-1-carboxamide]
IC50 ([1]; 3 h): 10 to 100 nM | activity at 1 µM ([2]; CHO, 2 h): 104%

O=C(N[C@H]1CC[C@H](C(=O)NCC2CNc3cc(Cl)ccc3O2)CC1)c1ccc2cc(Cl)ccc2n1 (stereo partly drawn) [Compound 71, trans-6-chloro-N-(4-(((6-chloro-3,4-dihydro-2H-benzo[b][1,4]oxazin-2-yl)methyl)carbamoyl)cyclohexyl)quinoline-2-carboxamide]
IC50 [1, 3]: < 10 nM | activity at 1 µM [2, 4]: 174%

O=C(NN1CCC(C(=O)NCC2CNc3cc(Cl)ccc3O2)CC1)c1ccc2cc(Cl)ccc2n1 (centres unmarked) [Compound 72, 6-chloro-N-(4-(((6-chloro-3,4-dihydro-2H-benzo[b][1,4]oxazin-2-yl)methyl)carbamoyl)piperidin-1-yl)quinoline-2-carboxamide]
IC50 [1, 3]: < 10 nM | activity at 1 µM [2, 4]: 92.2%

O=C(COc1ccc(Cl)c(F)c1)NC1CCN(C(=O)Nc2ccc3cc(Cl)ccc3n2)CC1 [Compound 15, 4-(2-(4-chloro-3-fluorophenoxy)acetamido)-N-(6-chloroquinolin-2-yl)piperidine-1-carboxamide]
IC50 [1, 3]: 10 to 100 nM | activity at 1 µM [2, 4]: 177%

O=C(CO[C@H]1C[C@@H](OC(F)(F)F)C1)N[C@H]1CC[C@H](C(=O)Nc2nc3cc(Cl)ccc3s2)CC1 [Compound 120, trans-N-(5-chlorobenzo[d]thaizol-2-yl)-4-(2-(cis-3-(trifluoromethoxy)cyclobutoxy)acetamido)cyclohexanecarboxamide]
IC50 [1, 3]: 10 to 100 nM | activity at 1 µM [2, 4]: 122%
